Patent US20060111341A1, “Use of galanthamine and the derivatives thereof in the production of medicaments” (priority 2003, published 2006)
Like-named read-outs stand apart in the source and are kept apart here.

Experiments:
[1] = biological target: T1, Acetylcholinesterase (Homo sapiens, UniProt P22303); experiment: biochemical
[2] = biological target: Butyrylcholinesterase (Homo sapiens, UniProt P06276); experiment: biochemical
[3] = biological target: T1, Acetylcholinesterase
[4] = tested on: post-operative delirium; experiment: Prospective clinical study for the prevention of post-operative delirium (Confusion Assessment Method); assay type: in vivo, patients
From the text: In order to be able to test the effect of the pharmaceutical forms of the invention on patients, a prospective study was accomplished for the prevention of post-operative delirium at five Austrian orthopedic hospitals (two in Vienna, and one each in Linz, Graz and Krems) and all together 229 patients, who underwent hip replacement and/or combined planned surgical intervention for implantation were part of the study.
Hip/Knee endoprosthesis. The patients of the group were given in the evening following the surgical intervention (day 0) 8 mg galanthamine HCl, then on the days 1 to 4 in each case 4 mg in the morning and at noon and 8 mg in the evening, i.e., 16 mg t.i.d. to the fifth day. […], the dose was reduced to 8 mg b.i.d., starting from that day until the 6th day when no more treatment took place.
For the determination of the effectiveness with the help of the “Confusion Assessment Method” (Lit.14) 155 patients could be consulted. In the group of placebos 7 patients (8, 5%) developed an post-operative delirium, in the galanthamine group only one patient (1, 4%) developed post-operative delirium, which corresponds to a statistically significant difference (p=0, 044).

[5] = tested on: medicament-induced delirium; conditions: one patient, WO 00/32185 A; cited from earlier work

Chain of Butyrylcholinesterase (P06276 29-602): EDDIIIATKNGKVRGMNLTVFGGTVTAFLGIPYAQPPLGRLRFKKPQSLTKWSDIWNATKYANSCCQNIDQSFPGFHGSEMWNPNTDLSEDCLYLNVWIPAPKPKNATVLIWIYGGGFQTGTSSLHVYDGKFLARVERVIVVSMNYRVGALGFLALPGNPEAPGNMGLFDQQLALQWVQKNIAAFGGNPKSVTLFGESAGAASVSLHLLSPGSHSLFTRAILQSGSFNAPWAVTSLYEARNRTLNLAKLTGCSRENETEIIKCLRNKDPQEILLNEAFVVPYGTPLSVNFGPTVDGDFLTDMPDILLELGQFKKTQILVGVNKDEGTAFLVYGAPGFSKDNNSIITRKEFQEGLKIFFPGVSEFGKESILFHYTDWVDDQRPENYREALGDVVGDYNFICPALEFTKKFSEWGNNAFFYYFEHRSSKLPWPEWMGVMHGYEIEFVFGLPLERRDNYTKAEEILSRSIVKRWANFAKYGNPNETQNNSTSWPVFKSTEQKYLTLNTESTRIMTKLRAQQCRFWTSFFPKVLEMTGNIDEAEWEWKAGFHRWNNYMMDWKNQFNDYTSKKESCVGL
T1 sequence (P22303 32-614): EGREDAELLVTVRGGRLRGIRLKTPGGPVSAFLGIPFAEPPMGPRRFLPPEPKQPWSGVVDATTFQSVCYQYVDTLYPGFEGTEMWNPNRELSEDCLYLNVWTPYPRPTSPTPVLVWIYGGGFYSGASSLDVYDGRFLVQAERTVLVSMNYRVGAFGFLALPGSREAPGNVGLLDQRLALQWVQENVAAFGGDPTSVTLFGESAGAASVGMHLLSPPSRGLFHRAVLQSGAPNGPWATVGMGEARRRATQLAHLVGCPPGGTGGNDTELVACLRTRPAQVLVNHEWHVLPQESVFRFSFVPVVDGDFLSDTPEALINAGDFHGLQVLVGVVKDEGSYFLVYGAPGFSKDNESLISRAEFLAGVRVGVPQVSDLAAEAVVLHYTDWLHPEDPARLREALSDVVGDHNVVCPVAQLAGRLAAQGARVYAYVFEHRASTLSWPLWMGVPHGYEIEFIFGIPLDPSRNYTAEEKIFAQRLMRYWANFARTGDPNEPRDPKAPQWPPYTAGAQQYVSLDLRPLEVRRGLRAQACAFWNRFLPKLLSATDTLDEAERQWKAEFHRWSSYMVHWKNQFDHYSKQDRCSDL

Structure (SMILES)	IC50 [1] [µM]	IC50 [2] [µM]	other results
COc1cc2c(cc1OC)C(=O)C(CCCCCN1CC[C@@]34C=C[C@H](O)C[C@@H]3Oc3c(OC)ccc(c34)C1)C2 (some centres unmarked) [Nr 158]	0.0052	0.24	–
CCOC(=O)NN(CN1CC[C@@]23C=C[C@H](O)C[C@@H]2Oc2c(OC)ccc(c23)C1)C(=O)OCC [Nr 159]	3	> 100	–
COc1ccc2c3c1O[C@H]1C[C@@H](O)C=C[C@@]31CCN(CN(NC(=O)OC(C)(C)C)C(=O)OC(C)(C)C)C2 [Nr 160]	3.6	20	–
COc1ccc2c3c1O[C@H]1C[C@@H](O)C=C[C@@]31CCN(CCCCN1C(=O)c3ccccc3S1(=O)=O)C2 [Nr 161]	0.022	1.5	–
COc1cc2c(cc1OC)C(=O)C(CCCCN1CC[C@@]34C=C[C@H](O)C[C@@H]3Oc3c(OC)ccc(c34)C1)C2 (some centres unmarked) [Nr 167]	–	–	IC50 [3]: 0.02 µM
COc1ccc2c3c1O[C@H]1C[C@@H](OC(=S)Nc4ccccc4)C=C[C@@]31CCN(C)C2 [Nr 179]	51	30	–
COc1ccc2c3c1O[C@H]1C[C@@H](O)C=C[C@@]31CCN(C(=O)Nc1cccc3ccccc13)C2 [Nr 267]	70	> 100	–
COc1cc(Br)c2c3c1O[C@@H]1C[C@H](O)C=C[C@]31CCN(C(=O)CCN1CCCC1)C2 [Nr 271]	> 100	66	–
COc1ccc2c3c1O[C@H]1C[C@@H](O)C=C[C@@]31CCN(C)C2 [galanthamine]	–	–	patients who developed post-operative delirium (number) ([4]; hip/knee endoprosthesis patients, oral galanthamine day 0 to 5, Confusion Assessment Method, 155 patients evaluated, placebo 7 patients): one; improvement of the symptoms of acute POD ([4]; oral administration, patients with limited cognitive ability with acute POD): unexpected and large improvement of the symptoms; observed side effects of galanthamine administration ([4]; oral administration, post-operative patients): very small; patients who developed post-operative delirium (percent) ([4]; po, 0 h): 1, 4%
CCN(C)C(=O)Oc1cccc([C@H](C)N(C)C)c1 [rivastigmine]	–	–	treatment of delirium after lithium intoxication [5]: successfully treated
